From PMC6754432, “Radiochemical examination of transthyretin (TTR) brain penetration assisted by iododiflunisal, a TTR tetramer stabilizer and a new candidate drug for AD” (Scientific Reports, 2019)

Legend:
[1] = molecular target: T1, TTR (Homo sapiens, UniProt P02766); test: Displacement of bound [131I]IDIF from TTR-[131I]IDIF complex by non-labeled IDIF; assay type: binding; details: concentrations over 50 μM of IDIF, TTR complex 0.11 μM, overnight 4 °C
T1 construct: made in house
Method: Likewise, the preparation of [^131I]TTR-IDIF was carried out under adequate conditions to ensure that all the [^131I]TTR was stabilized with IDIF. This is extremely important because the separation of [^131I]TTR from [^131I]TTR-IDIF is unfeasible using chromatographic techniques. […] It was observed that a concentration of IDIF = 50 µM displaced > 99% of bound [^131I]IDIF.
First, the TTR/IDIF relative amount to achieve complete formation of the complex was determined. With that aim, six 100 μL aliquots of the [^131I]IDIF-TTR complex prepared as described above were incubated overnight (T = 4 °C) with different amounts of non-radioactive IDIF in 100 μL TNE buffer (final concentrations of IDIF = 0.88, 2.63, 8.76, 17.5, 52.5 and 175 μM, respectively; final concentration of TTR as TTR-[^131I]IDIF complex = 0.11 μM). After incubation, the samples were eluted through illustra^TM NAP-5 columns (GE Healthcare, USA) and radioactivity corresponding to the collected fractions of free [^131I]IDIF and TTR-[^131I]IDIF complex were compared to determine the proportion of [^131I]IDIF free and bound to TTR. For concentrations over 50 μM of IDIF, the displacement was > 97%.

[2] = Ex vivo biodistribution by dissection and gamma counting after intravenous administration; assay type: in vivo; details: i.v., mice
Method: The biodistribution of [^131I]TTR after intravenous administration in wild type mice was first investigated. With that aim, animals (n = 3 per time point) were administered with the radiotracer and sacrificed by exsanguination at pre-defined time points. Major organs were harvested together with blood and urine and the amount of radioactivity was determined by gamma counting. (Fig. 2, red bars).
Animals (n = 3 per compound and time point) were anesthetized with isoflurane 5% in pure oxygen and a solution containing [^131I]TTR, [^131I]IDIF, [^131I]TTR-IDIF complex or TTR-[^131I]IDIF complex (0.9 ± 0.4 MBq/120 μl) was injected through one of the lateral tail veins. Animals were recovered from anaesthesia and at pre-determined time points (t = 5, and 15 min and 1, 6 and 24 h), animals were sacrificed by perfusion using saline solution and kidneys, spleen, liver, small intestine, and brain were quickly removed and rinsed with water. The amount of activity in each organ was measured in an automatic gamma counter (2470 Wizard, PerkinElmer). Urine and blood samples were obtained just before perfusion. Part of the blood was processed to separate the plasma, which was also counted in the gamma counter.
For dissection and gamma counting experiments to assess biodistribution, values obtained for different compounds at each time point and organ were compared using t-student test, comparison of two independent means, using the GraphPad Prism software (version 7.03).

Row | Structure (SMILES) | displacement of [131I]IDIF [1] | percentage of injected dose per gram of blood ([2]; blood, t = 5 min, n = 3) | maximum value in brain ([2]; brain, 1 h after administration) | accumulation in kidneys ([2]; kidneys, t = 5 min) | accumulation in liver ([2]; liver, t = 5 min) | accumulation in small intestine (peak) ([2]; small intestine, peak at t = 1–6 h)
1 | O=C(O)c1cc(-c2ccc(F)cc2F)cc(I)c1O [IDIF, iododiflunisal] | > 97% | – | – | – | – | –
2 | O=C(O)c1cc(-c2ccc(F)cc2F)cc([131I])c1O [[^131I]IDIF, [^131I]iododiflunisal] | – | 23.3 ± 7.6 %ID/g | 0.05 %ID/g | 14.9 ± 3.0 % ID/g | 20.0 ± 5.5 % ID/g | ca. 15 % ID/g
